Reference: PubChem BioAssay AID328 (DTP/NCI, 2004)
Values joined by “and” are separate entries in the source; they are usually repeats but may differ in a detail not shown here. Equal entries are not always repeated. Inconclusive results and toxic doses are left out. The calls were made as follows: active = survival T/C of 150% or more; inactive = T/C below 125% in these data.

Test system: BDF1 mice, P388 leukemia ip, median survival T/C
Experiment: NCI In Vivo Anticancer Drug Screen. Data for tumor model P388 Leukemia (intraperitoneal) in B6D2F1 (BDF1) mice
Conditions: endpoint: median survival time, higher = longer survival
In short: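 Each value expresses how treatment altered survival: treated-mouse outcome over vehicle-mouse outcome, both groups bearing the transplanted tumour.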

[1] = dose: 100.0 mg/kg/injection, schedule: Q01DX009 (ip), vehicle: Klucel (hydroxypropylcellulose) (HPC)
[2] = dose: 100.0 mg/kg/injection, schedule: Q04DX003 (ip), vehicle: Klucel (hydroxypropylcellulose) (HPC)
[3] = dose: 200.0 mg/kg/injection, schedule: Q01DX009 (ip), vehicle: Klucel (hydroxypropylcellulose) (HPC)
[4] = dose: 200.0 mg/kg/injection, schedule: Q04DX003 (ip), vehicle: Klucel (hydroxypropylcellulose) (HPC)
[5] = dose: 400.0 mg/kg/injection, schedule: Q01DX009 (ip), vehicle: Klucel (hydroxypropylcellulose) (HPC)
[6] = dose: 400.0 mg/kg/injection, schedule: Q04DX003 (ip), vehicle: Klucel (hydroxypropylcellulose) (HPC)
[7] = dose: 50.0 mg/kg/injection, schedule: Q01DX009 (ip), vehicle: saline with Tween-80
[8] = dose: 200.0 mg/kg/injection, schedule: Q01DX009 (ip), vehicle: saline
[9] = dose: 400.0 mg/kg/injection, schedule: Q01DX009 (ip), vehicle: saline
[10] = dose: 50.0 mg/kg/injection, schedule: Q04DX003 (ip), vehicle: saline with Tween-80
[11] = dose: 100.0 mg/kg/injection, schedule: Q04DX003 (ip), vehicle: saline with Tween-80
[12] = dose: 100.0 mg/kg/injection, schedule: Q04DX003 (ip), vehicle: saline sonified
[13] = dose: 200.0 mg/kg/injection, schedule: Q04DX003 (ip), vehicle: saline with Tween-80
[14] = dose: 25.0 mg/kg/injection, schedule: Q01DX009 (ip), vehicle: saline with Tween-80
[15] = dose: 25.0 mg/kg/injection, schedule: Q01DX009 (ip), vehicle: saline
[16] = dose: 50.0 mg/kg/injection, schedule: Q01DX009 (ip), vehicle: saline

Measured: T/C

C=CC(C)(O)CCC1C(=C)CCC2C(C)(C)CCCC12C (configuration not stated)
inactive: [1] 90 % of control | [2] 95 % of control | [3] 86 % of control | [4] 100 % of control | [5] 95 % of control | [6] 95 % of control

CC(CN1c2ccccc2Sc2ccccc21)N(C)C (configuration not stated)
inactive: dose: 18.75 mg/kg/injection, schedule: Q01DX009 (ip), vehicle: saline 100 % of control | dose: 37.5 mg/kg/injection, schedule: Q04DX003 (ip), vehicle: saline 121 % of control | dose: 75.0 mg/kg/injection, schedule: Q04DX003 (ip), vehicle: saline 117 % of control | dose: 150.0 mg/kg/injection, schedule: Q04DX003 (ip), vehicle: saline 95 % of control

CC(C)(C)/C([O-])=N/[N+](C)(C)Cc1ccccc1
inactive: dose: 100.0 mg/kg/injection, schedule: Q01DX001 (ip), vehicle: saline 109 % of control | dose: 200.0 mg/kg/injection, schedule: Q01DX001 (ip), vehicle: saline 104 % of control | dose: 400.0 mg/kg/injection, schedule: Q01DX001 (ip), vehicle: saline 104 % of control

CCSC1(SCC)C(=O)OC2=C(CCCCCC2)C1N(C)C (configuration not stated)
inactive: [7] 96 % of control | dose: 100.0 mg/kg/injection, schedule: Q01DX009 (ip), vehicle: saline with Tween-80 99 % of control | dose: 200.0 mg/kg/injection, schedule: Q01DX009 (ip), vehicle: saline with Tween-80 99 % of control

CC1CC(=O)C(O)C2(C)C1CC1OC(=O)C(OC(=O)c3ccccc3)C3C(C)C(O)C4(O)OCC13C42 (configuration not stated)
inactive: dose: 0.12 mg/kg/injection, schedule: Q01DX009 (ip), vehicle: saline with Tween-80 110 % of control | dose: 0.25 mg/kg/injection, schedule: Q01DX009 (ip), vehicle: saline with Tween-80 121 % of control | dose: 1.0 mg/kg/injection, schedule: Q01DX009 (ip), vehicle: saline with Tween-80 118 % of control | dose: 2.0 mg/kg/injection, schedule: Q01DX009 (ip), vehicle: saline with Tween-80 121 % of control | dose: 4.0 mg/kg/injection, schedule: Q01DX009 (ip), vehicle: saline with Tween-80 112 % of control | dose: 8.0 mg/kg/injection, schedule: Q01DX009 (ip), vehicle: saline with Tween-80 116 % of control | dose: 16.0 mg/kg/injection, schedule: Q01DX009 (ip), vehicle: saline with Tween-80 118 % of control

O=c1[nH][nH]c(=O)n1O
inactive: [8] 100 % of control | [9] 95 % of control

CCCCCCCCCCCCNCc1ccc(O)cc1
inactive: dose: 25.0 mg/kg/injection, schedule: Q04DX003 (ip), vehicle: saline with Tween-80 104 % of control | [10] 100 % of control | [11] 108 % of control

CCN(CCN)c1cccc(C)c1
inactive: dose: 25.0 mg/kg/injection, schedule: Q04DX003 (ip), vehicle: saline sonified 100 % of control | dose: 50.0 mg/kg/injection, schedule: Q04DX003 (ip), vehicle: saline sonified 120 % of control | [12] 100 % of control

CC(C)(C)C(=O)CC(=O)C(F)(F)C(F)(F)C(F)(F)F.CC(C)(C)C(=O)CC(=O)C(F)(F)C(F)(F)C(F)(F)F.CC(C)(C)C(=O)CC(=O)C(F)(F)C(F)(F)C(F)(F)F.[Fe]
inactive: [1] 97 % of control | [3] 114 % of control | [5] 97 % of control

O=C1OCc2cc3ccccc3nc21
inactive: [11] 109 % of control | [13] 100 % of control | dose: 400.0 mg/kg/injection, schedule: Q04DX003 (ip), vehicle: saline with Tween-80 104 % of control

CC(=O)C1C(=O)C(=O)OC1C (configuration not stated)
inactive: dose: 50.0 mg/kg/injection, schedule: Q01DX009 (ip), vehicle: Klucel (hydroxypropylcellulose) (HPC) 109 % of control | [1] 95 % of control | [11] 113 % of control | [3] 90 % of control | [13] 104 % of control

CCCCCCCCC(=O)NCc1ccc(OC)cc1
inactive: dose: 100.0 mg/kg/injection, schedule: Q01DX001 (ip), vehicle: other 91 % of control | dose: 200.0 mg/kg/injection, schedule: Q01DX001 (ip), vehicle: other 100 % of control | dose: 400.0 mg/kg/injection, schedule: Q01DX001 (ip), vehicle: other 91 % of control

COc1nc(NC2OCC(O)C(O)C2O)c(C(=O)CCl)c(=O)n1C (configuration not stated)
inactive: dose: 100.0 mg/kg/injection, schedule: Q04DX002 (ip), vehicle: saline with Tween-80 104 % of control | dose: 200.0 mg/kg/injection, schedule: Q04DX002 (ip), vehicle: saline with Tween-80 100 % of control | dose: 400.0 mg/kg/injection, schedule: Q04DX002 (ip), vehicle: saline with Tween-80 100 % of control

O=c1cc(-c2ccc(OCc3ccccc3)c(-c3c(OCc4ccccc4)cc(OCc4ccccc4)c4c(=O)cc(-c5ccc(OCc6ccccc6)cc5)oc34)c2)oc2cc(OCc3ccccc3)cc(OCc3ccccc3)c12
inactive: dose: 100.0 mg/kg/injection, schedule: Q01DX001 (ip), vehicle: saline with Tween-80 88 % of control

CCSc1ccc2c(c1)N(CCCN1CCN(C)CC1)c1ccccc1S2
inactive: dose: 15.0 mg/kg/injection, schedule: Q04DX003 (ip), vehicle: saline 110 % of control | [14] 112 % of control | [15] 92 % of control | dose: 30.0 mg/kg/injection, schedule: Q04DX003 (ip), vehicle: saline 120 % of control | [7] 91 % of control | [16] 103 % of control | dose: 100.0 mg/kg/injection, schedule: Q04DX003 (ip), vehicle: saline 90 % of control | dose: 120.0 mg/kg/injection, schedule: Q04DX003 (ip), vehicle: saline 105 % of control
active: dose: 200.0 mg/kg/injection, schedule: Q04DX003 (ip), vehicle: saline 150 % of control

Cc1nn(C2CC(O)C(O)C(CO)O2)c(=O)[nH]c1=O (configuration not stated)
inactive: [16] 98 % of control | dose: 100.0 mg/kg/injection, schedule: Q01DX009 (ip), vehicle: saline 99 % of control | [8] 97 % of control | [9] 106 % of control

COC(=O)/C(C#N)=C\c1ccccc1
inactive: [10] 104 % of control | [11] 109 % of control

COB(OC)OC
inactive: [2] 91 % of control | [4] 104 % of control | [6] 91 % of control

Cc1noc2nccnc12
inactive: [14] 95 % of control | [7] 95 % of control

OCC(O)CCBr (configuration not stated)
active: dose: 264.0 mg/kg/injection, schedule: Q01DX009 (ip), vehicle: saline with Tween-80 150 % of control | dose: 400.0 mg/kg/injection, schedule: Q01DX009 (ip), vehicle: saline with Tween-80 170 % of control | dose: 600.0 mg/kg/injection, schedule: Q01DX009 (ip), vehicle: saline with Tween-80 208 % of control

COc1cc(/C=C/c2ccc3ccccc3n2)cc(OC)c1OC
inactive: [11] 100 % of control

O=C(c1ccccc1)c1ccccc1
inactive: dose: 100.0 mg/kg/injection, schedule: Q01DX001 (ip), vehicle: Klucel (hydroxypropylcellulose) (HPC) 100 % of control | dose: 200.0 mg/kg/injection, schedule: Q01DX001 (ip), vehicle: Klucel (hydroxypropylcellulose) (HPC) 100 % of control | dose: 400.0 mg/kg/injection, schedule: Q01DX001 (ip), vehicle: Klucel (hydroxypropylcellulose) (HPC) 116 % of control

NC(=O)c1cc([N+](=O)[O-])ccc1N
inactive: [12] 115 % of control | dose: 200.0 mg/kg/injection, schedule: Q04DX003 (ip), vehicle: saline sonified 110 % of control | dose: 400.0 mg/kg/injection, schedule: Q04DX003 (ip), vehicle: saline sonified 120 % of control

COc1ccc(CC2=NCCc3cc(OC)c(OC)cc32)cc1OC
active: dose: 12.5 mg/kg/injection, schedule: Q01DX009 (ip), vehicle: saline 153 % of control
inactive: [15] 99 % of control

CCOC(=O)CNC(=O)CCCCSc1ncnc2nc[nH]c12
inactive: dose: 20.0 mg/kg/injection, schedule: Q01DX009 (ip), vehicle: Klucel (hydroxypropylcellulose) (HPC) 97 % of control and 98 % of control | dose: 40.0 mg/kg/injection, schedule: Q01DX009 (ip), vehicle: Klucel (hydroxypropylcellulose) (HPC) 91 % of control | dose: 80.0 mg/kg/injection, schedule: Q01DX009 (ip), vehicle: Klucel (hydroxypropylcellulose) (HPC) 101 % of control and 111 % of control | dose: 160.0 mg/kg/injection, schedule: Q01DX009 (ip), vehicle: Klucel (hydroxypropylcellulose) (HPC) 89 % of control and 100 % of control | dose: 320.0 mg/kg/injection, schedule: Q01DX009 (ip), vehicle: Klucel (hydroxypropylcellulose) (HPC) 87 % of control and 89 % of control | dose: 640.0 mg/kg/injection, schedule: Q01DX009 (ip), vehicle: Klucel (hydroxypropylcellulose) (HPC) 86 % of control
